Assay [1] has as its target human muscarine receptor M3 (Homo sapiens, UniProt P20309). Put plainly: Inhibitory activity against human muscarine receptor M3 (aequorin luminescence in CHO cells, acetylcholine challenge). To be noted: CHO cells expressing hM3 and apo-Aequorin; acetylcholine chloride 112.92 nM. Format: cell-based. As for the experimental part: CHO cells (PerkinElmer, ES-212-AF) that stably express human muscarine receptor 3 (hM3) and apo-Aequorin were cultured at 37° C. 5% CO2 in Ham's F12 media (Invitrogen 12500-062) containing 10% fetal bovine serum (FBS) (Gibico 10099-141), 400 μg/mL G418 (sigma G5013) and 250 μg/mL Zeocin (Invivogen ant-zn-5p), until a confluency of 90% to 100% was reached. Cells were separated by rinsing with PBS/5 mM EDTA, collected by centrifugation, re-suspended in phenol red-free Ham's F12 media (Invitrogen 12500-062) containing 0.1% BSA (BOVOGEN BSAS 100), and counted. The cell concentration was adjusted to 1×10^6 cells/ml. 15 ml of the cell suspension was added to a 50-ml centrifuge tube, to which Coelenterazine-h (Promega S2011) was added to a final concentration of 5 μM. The tube was wrapped with a tin foil to shade light, and incubated on a rotary shaker at 20° C. for 4 hours. The cells were diluted with a phenol red-free/0.1% BSA Ham's F12 medium to a final concentration of 5.0/10^5 cells/ml, placed on a rotary shaker in low-speed rotation, and incubated at room temperature for at least 1 hour. The compounds of the Examples were formulated with DMSO into 10 mM stock solutions, diluted in series with a phenol red-free/0.1% BSAHam's F12 medium (log(M): −7, −8, −9, −10, −11), and added to a 96-well plate at 50 μl/well. 50 μl cell suspension was further added to each well (25,000 cells/well) and incubated for 15 min at room temperature. The 96-well plate was placed under a microplate reader (Perkin Elmer, Envision), and a 50 μl solution of acetylcholine chloride (Sigma A6625) was added to each well at a concentration of 112.92 nM (hM3) with a microplate reader sample injector. The luminescence was recorded over 20 seconds, and IC50 values were calculated and analyzed by Origin 7.5.

Assay [2] has as its target human β2-adrenergic receptor (Homo sapiens, UniProt P07550). Nature of the assay: Agonistic activity on human β2-adrenergic receptor (LANCE Ultra cAMP Assay in CHO cells). Format: cell-based. Conditions: CHO cells expressing hβ2; cAMP TR-FRET. The procedure:
The agonistic activity of the compounds of the Examples on the human adrenergic receptor was measured by the LANCE Ultra cAMP Assay.
CHO cells (PerkinElmer, ES-034-AF) that stably express human adrenergic receptor (hβ2) were cultured at 37° C. 5% CO2 in MEM-alpha media (Invitrogen 12561-056) containing 10% fetal bovine serum (FBS) (Gibico 10099-141) and 250 μg/ml Zeocin (InvivoGen ant-zn-5p), until a confluency of 90% to 100% was reached. Then the agonism on cAMP was tested by using a LANCE Ultra cAMP Assay kit (PerkinElmer TRF0263). Cells were separated with PBS/5 mM EDTA, collected by centrifugation, re-suspended in Stimulation Buffer (1×HBSS, 5 mM HEPES, 0.5 mM IBMX, 0.1% BSA, pH=7.4), and adjusted to a cell concentration of 6×10^5 cells/ml. The compounds of the Examples were formulated with DMSO into 10 mM stock solutions, diluted in series with Stimulation Buffer, and added to a 384-well plate at 5 μl/well. 5 μl cell suspension was further added to each well (3,000 cells/well), incubated for 30 min at room temperature, then 5 μl of a 4×Eu-cAMP trace working solution was added to each well, and then 5 μl of a 4×Ulight-anti-cAMP working solution was added to each well, followed by incubation at room temperature for 1 hour. The 384-well plate was detected for TR-FRET under a microplate reader (Perkin Elmer, Envision), and EC50 values were calculated and analyzed by Origin 7.5.

For assay [3], the system named is methacholine-induced bronchoconstriction in guinea pigs. Put plainly: Inhibition against methacholine-induced bronchoconstriction in guinea pigs (PenH, whole-body plethysmograph). It counts as in vivo. To be noted: intratracheal, 0.3 nmol per animal, 3 mg/ml methacholine; for PenH Inhibition (%) 4 h: 4 h after administration; for PenH Inhibition (%) 24 h: 24 h after administration. The procedure: 8-week-old guinea pigs (all male) were purchased from Vital River Laboratory Animal Technology Co., Ltd., and adapted for 3 days before the experiments were started. The test compounds were formulated into 0.6 mM stock solutions with 83% dry ethanol+17% Tween80, which were diluted 500 times before administration. Before administration, the animals were anesthetized with 5% isoflurane by using a small-animal anesthetic apparatus (Matrx: VME2), wherein the anesthetic duration was 1.5 to 2 min. The anesthetized guinea pigs were fixed on a tracheal cannula platform, and intratracheally administrated with the compounds at 250 μl/animal by using a rat liquid-aerosol administration kit (penn-century; MSA-250-R). 4 hours and 24 hours after administration, the enhanced pauses (PenH) of the guinea pigs were measured in a whole-body plethysmograph (DSI; GS220A12-R7B). 3 mg/ml methacholine (Mch) was administrated by nebulization for 36 sec, and data was recorded over 7 min. The average of PenH was calculated (see J Pharmacol Exp Ther 345:260-270).
PenH calculation formula: PenH=PEP/PIP*Pause; Pause=(Te−Tr)/Tr
Te: Duration of expiratory phase (s)
Tr: Duration of relaxation phase (s)
PEP: Expiratory peak flow rate (ml/s)
PIP: Inspiratory peak flow rate (ml/s)

Here are results for eight compounds from patent publication US20210205291A1, “NITROGENOUS HETEROCYCLIC AMIDE DERIVATIVE, PREPARATION METHOD THEREOF, AND PHARMACEUTICAL APPLICATION” (Sichuan Haisco Pharmaceutical Co., Ltd., priority 2016, published 2021).

pEC50, pIC50: −log10 of the molar value.

Chain of human muscarine receptor M3 (P20309 whole entry): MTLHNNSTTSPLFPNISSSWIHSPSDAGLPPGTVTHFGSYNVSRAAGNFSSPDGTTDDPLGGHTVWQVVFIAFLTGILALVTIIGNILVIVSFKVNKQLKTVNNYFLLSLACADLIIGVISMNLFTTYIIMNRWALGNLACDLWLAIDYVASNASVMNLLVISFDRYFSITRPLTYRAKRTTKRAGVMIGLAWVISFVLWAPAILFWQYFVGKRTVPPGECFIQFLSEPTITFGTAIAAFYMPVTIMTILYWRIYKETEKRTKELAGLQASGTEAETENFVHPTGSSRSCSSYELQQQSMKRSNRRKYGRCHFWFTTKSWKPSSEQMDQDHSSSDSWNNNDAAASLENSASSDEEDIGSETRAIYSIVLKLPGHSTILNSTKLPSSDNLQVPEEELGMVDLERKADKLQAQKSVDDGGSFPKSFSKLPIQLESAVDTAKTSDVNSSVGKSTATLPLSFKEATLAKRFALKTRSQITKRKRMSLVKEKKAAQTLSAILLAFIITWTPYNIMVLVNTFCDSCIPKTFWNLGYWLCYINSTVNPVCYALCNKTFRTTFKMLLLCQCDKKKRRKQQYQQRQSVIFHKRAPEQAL
Chain of human β2-adrenergic receptor (P07550 whole entry): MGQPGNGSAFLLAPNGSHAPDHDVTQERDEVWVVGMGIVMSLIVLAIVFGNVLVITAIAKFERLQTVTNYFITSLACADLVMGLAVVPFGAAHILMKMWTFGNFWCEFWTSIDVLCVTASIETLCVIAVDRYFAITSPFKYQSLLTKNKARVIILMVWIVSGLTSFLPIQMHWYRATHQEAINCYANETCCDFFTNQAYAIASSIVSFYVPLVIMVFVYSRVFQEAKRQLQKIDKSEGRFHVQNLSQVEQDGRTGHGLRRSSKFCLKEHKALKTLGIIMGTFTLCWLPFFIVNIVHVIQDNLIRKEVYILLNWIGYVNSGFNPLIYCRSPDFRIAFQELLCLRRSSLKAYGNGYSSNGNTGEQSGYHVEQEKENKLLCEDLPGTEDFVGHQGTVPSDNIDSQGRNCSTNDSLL

Regarding `O=C(Nc1ccccc1-c1ccccc1)OC1CCN(CCC(=O)N2CCC(C(=O)Nc3ccc(CNC[C@H](O)c4ccc(O)c5[nH]c(=O)ccc45)cc3)CC2)CC1` [Compound 1, [1-[3-[4-[[4-[[[(2R)-2-hydroxy-2-(8-hydroxy-2-oxo-1H-quinolin-5-yl)ethyl]amino]methyl]phenyl]carbamoyl]-1-piperidyl]-3-oxo-propyl]-4-piperidyl]N-(2-phenylphenyl)carbamate; ditrifluoroacetic acid], in assay [1], the pIC50 (as a rule, the IC50 on a negative log10 scale, so that one unit is a factor of ten) was 7.84.
Consider `COc1cc(NC(=O)OCC2CCN(C(=O)CCN3CCC(OC(=O)Nc4ccccc4-c4ccccc4)CC3)CC2)c(Cl)cc1CNC[C@H](O)c1ccc(O)c2[nH]c(=O)ccc12` [Compound 3, [1-[3-[4-[(2-phenylphenyl)carbamoyloxy]-1-piperidyl]propanoyl]-4-piperidyl]methyl N-[2-chloro-4-[[[(2R)-2-hydroxy-2-(8-hydroxy-2-oxo-1H-quinolin-5-yl)ethyl]amino]methyl]-5-methoxy-phenyl]carbamate; di(2,2,2-trifluoroacetic acid)], for which the pEC50 (in general, −log10 of the EC50, conventionally taken in molar units) in assay [2] is 7.99. The negative-log IC50 (pIC50) in assay [1] was 8.42.
In turn, `COc1cc(NC(=O)OC[C@@H]2CCN(C(=O)CCN3CCC(OC(=O)Nc4ccccc4-c4ccccc4)CC3)C2)c(Cl)cc1CNC[C@H](O)c1ccc(O)c2[nH]c(=O)ccc12` [Compound 4, [(3R)-1-[3-[4-[(2-phenylphenyl)carbamoyloxy]-1-piperidyl]propanoyl]pyrrolidin-3-yl]methyl N-[2-chloro-4-[[[(2R)-2-hydroxy-2-(8-hydroxy-2-oxo-1H-quinolin-5-yl)ethyl]amino]methyl]-5-methoxy-phenyl]carbamate; di(2,2,2-trifluoro)acetic acid] had a negative logarithm of the IC50 (pIC50) in assay [1] of 8.65.
`COc1cc(NC(=O)OC[C@H]2CCN(C(=O)CCN3CCC(OC(=O)Nc4ccccc4-c4ccccc4)CC3)C2)c(Cl)cc1CNC[C@H](O)c1ccc(O)c2[nH]c(=O)ccc12` [Compound 5, [(3S)-1-[3-[4-[(2-phenylphenyl)carbamoyloxy]-1-piperidyl]propanoyl]pyrrolidin-3-yl]methyl N-[2-chloro-4-[[[(2R)-2-hydroxy-2-(8-hydroxy-2-oxo-1H-quinolin-5-yl)ethyl]amino]methyl]-5-methoxy-phenyl]carbamate; ditrifluoroacetic acid] had a pIC50 in assay [1] of 9.05. In assay [3], the “PenH Inhibition (%) 4 h” value was 96.4% and the “PenH Inhibition (%) 24 h” value was 78.6%.
On to `CN(CCNC[C@H](O)c1ccc(O)c2[nH]c(=O)ccc12)C(=O)C1CCN(C(=O)CCN2CCC(OC(=O)Nc3ccccc3-c3ccccc3)CC2)CC1` [Compound 6, [1-[3-[4-[2-[[(2R)-2-hydroxy-2-(8-hydroxy-2-oxo-1H-quinolin-5-yl)ethyl]amino]ethyl-methyl-carbamoyl]-1-piperidyl]-3-oxo-propyl]-4-piperidyl]N-(2-phenylphenyl)carba mate; ditrifluoroacetic acid], for which the pEC50 in assay [2] was 7.76. Further, the negative logarithm of the IC50 (pIC50) in assay [1] is 8.19.
As to `O=C(Nc1ccc(CNC[C@H](O)c2ccc(O)c3[nH]c(=O)ccc23)cc1F)OCC1CCN(C(=O)CCN2CCC(OC(=O)Nc3ccccc3-c3ccccc3)CC2)CC1` [Compound 7, [1-[3-[4-[(2-phenylphenyl)carbamoyloxy]-1-piperidyl]propanoyl]-4-piperidyl]methyl N-[2-fluoro-4-[[[(2R)-2-hydroxy-2-(8-hydroxy-2-oxo-1H-quinolin-5-yl)ethyl]amino]methyl]phenyl]carbamate; ditrifluoroacetic acid], the pEC50 in assay [2] is 8.22. This compound had a pIC50 in assay [1] of 8.88. For the same compound, in assay [3], the “PenH Inhibition (%) 4 h” value turned out to be 72.1% and the “PenH Inhibition (%) 24 h” value is 55.8%.
In the case of `O=C(Nc1ccc(CNC[C@H](O)c2ccc(O)c3[nH]c(=O)ccc23)c(F)c1)OCC1CCN(C(=O)CCN2CCC(OC(=O)Nc3ccccc3-c3ccccc3)CC2)CC1` [Compound 8, [1-[3-[4-[(2-phenylphenyl)carbamoyloxy]-1-piperidyl]propanoyl]-4-piperidyl]methyl N-[3-fluoro-4-[[[(2R)-2-hydroxy-2-(8-hydroxy-2-oxo-1H-quinolin-5-yl)ethyl]amino]methyl]phenyl]carbamate; ditrifluoroacetic acid], in assay [2], the pEC50 was 8.48. In addition, the pIC50 in assay [1] was 8.48. In assay [3], the “PenH Inhibition (%) 4 h” value is 78.2% and the “PenH Inhibition (%) 24 h” value is reported as 45.3%.
As for `O=C(CC1CCN(C(=O)CCN2CCC(OC(=O)Nc3ccccc3-c3ccccc3)CC2)CC1)Nc1ccc(CNC[C@H](O)c2ccc(O)c3[nH]c(=O)ccc23)cc1` [Compound 9, [1-[3-[4-[2-[4-[[[(2R)-2-hydroxy-2-(8-hydroxy-2-oxo-1H-quinolin-5-yl)ethyl]amino]methyl]anilino]-2-oxo-ethyl]-1-piperidyl]-3-oxo-propyl]-4-piperidyl]N-(2-phenylphenyl)carbamate; di(trifluoroacetic acid)], the negative logarithm of the EC50 (pEC50) in assay [2] was 8.40. The pIC50 in assay [1] was 8.43.
